These results are taken from patent US12180192B2, “Modulators of THR-β and methods of use thereof” (ALIGOS THERAPEUTICS, INC., priority 2019, dated 2024).

Usually Emax stands for the greatest response seen or fitted, relative to the assay's reference. One may read the pEC50 as −log10 of the EC50, conventionally taken in molar units.

The target in assay [1] is T1, THR beta (Homo sapiens, UniProt P10828).
T1 construct: expressed in transfected cells; host or cells: HEK293T (ATCC CRL-3216)
T1 sequence (P10828 1-461): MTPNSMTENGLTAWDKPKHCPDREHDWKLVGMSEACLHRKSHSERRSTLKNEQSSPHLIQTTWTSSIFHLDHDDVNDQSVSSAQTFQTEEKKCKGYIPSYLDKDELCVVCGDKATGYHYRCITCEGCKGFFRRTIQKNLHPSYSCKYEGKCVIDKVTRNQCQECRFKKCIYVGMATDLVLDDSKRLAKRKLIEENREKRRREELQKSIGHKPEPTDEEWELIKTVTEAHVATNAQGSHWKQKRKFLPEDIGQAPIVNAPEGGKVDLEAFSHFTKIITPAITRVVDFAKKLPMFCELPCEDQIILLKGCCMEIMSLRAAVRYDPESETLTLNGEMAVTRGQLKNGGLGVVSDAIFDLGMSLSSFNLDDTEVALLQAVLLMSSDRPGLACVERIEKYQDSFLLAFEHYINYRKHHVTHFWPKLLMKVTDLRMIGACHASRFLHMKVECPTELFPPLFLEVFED
T1 sequence (P19793 1-462 partner): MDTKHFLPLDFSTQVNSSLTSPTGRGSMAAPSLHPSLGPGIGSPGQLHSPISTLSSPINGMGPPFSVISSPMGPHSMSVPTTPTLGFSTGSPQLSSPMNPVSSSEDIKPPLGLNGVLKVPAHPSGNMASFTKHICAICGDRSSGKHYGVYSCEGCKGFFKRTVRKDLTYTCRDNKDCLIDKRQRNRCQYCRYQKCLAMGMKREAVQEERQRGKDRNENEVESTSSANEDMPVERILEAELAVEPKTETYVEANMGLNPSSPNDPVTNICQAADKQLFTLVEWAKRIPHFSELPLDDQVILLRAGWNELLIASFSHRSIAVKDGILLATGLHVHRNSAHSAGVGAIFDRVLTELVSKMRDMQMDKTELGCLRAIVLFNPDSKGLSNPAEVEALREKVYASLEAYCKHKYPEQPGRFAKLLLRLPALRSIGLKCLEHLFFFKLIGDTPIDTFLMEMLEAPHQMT
Put plainly: HEK293T THR beta/RXR luciferase reporter assay (Assay 2). It counts as cell-based. The following applies: for Emax: HEK-293T, Table 5, Assay 2, THRβ, read-out: Activity category Assay 2 THRβ (Emax); for pEC50: THR-beta, HEK293T reporter assay, read-out: Activity category Assay 2 (EC50, THR-beta agonist). An outline of the steps:
(§1)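 HEK293T cells transiently transfected with TRE-luciferase reporter, RXR, and THR alpha or THR beta plasmid; ten five-fold compound dilutions from DMSO added for 18-24 h. One-Glo luminescence read; percent agonism normalized between negative and positive controls.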
On the technique in general: In a reporter assay the amount or activity of a reporter protein is the signal.

For assay [2], the target named is T2, human thyroid receptor beta ligand-binding domain (LBD) (Homo sapiens, UniProt P10828).
T2 construct: purchased Invitrogen
T2 sequence (P10828 217-461 limits assumed): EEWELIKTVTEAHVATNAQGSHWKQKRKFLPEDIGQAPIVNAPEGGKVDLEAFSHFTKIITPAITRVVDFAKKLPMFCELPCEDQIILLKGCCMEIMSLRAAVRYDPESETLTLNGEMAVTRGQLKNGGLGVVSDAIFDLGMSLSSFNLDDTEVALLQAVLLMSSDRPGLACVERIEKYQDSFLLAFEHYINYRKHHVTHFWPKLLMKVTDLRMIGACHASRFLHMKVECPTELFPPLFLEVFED
Put plainly: TR-FRET thyroid receptor beta coactivator assay (THR biochemical assay, Assay 1). The note with it: for pEC50: THR-beta, TR-FRET coactivator assay, read-out: Activity category Assay 1 (EC50, THR-beta agonist); for Emax: Table 5, Assay 1, THRβ, read-out: Activity category Assay 1 THRβ (Emax). An outline of the steps:
(§2)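 GST-tagged human TRβ or TRα LBD, 1 nM final (stated for β), with fluorescein-SRC2-2 coactivator peptide (200 nM) and Tb-anti-GST antibody (2 nM). Agonists serially diluted, 1% DMSO final. 1 h incubation at rt in the dark; TR-FRET read as rise in fluorescein and drop in terbium emission.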
On the technique in general: Time-resolved FRET reads energy transfer from a long-lived donor to a nearby acceptor.

The target in assay [3] is T3, human thyroid receptor alpha ligand-binding domain (LBD) (Homo sapiens, UniProt P10827).
T3 construct: purchased Invitrogen
Put plainly: TR-FRET thyroid receptor alpha coactivator assay (THR biochemical assay, Assay 1). The note with it: for pEC50: Table 4, THR-alpha, read-out: Activity category Assay 1 (EC50, THR-alpha agonist activity); for Emax: Table 5, THRα, read-out: Activity category Assay 1 THRα (Emax). A digest of the protocol:
as §2

In assay [4] the target is T4, THR alpha (Homo sapiens, UniProt P10827).
T4 construct: expressed in transfected cells; host or cells: HEK293T (ATCC CRL-3216)
T4 sequence (P10827 1-410 isoform P10827-2): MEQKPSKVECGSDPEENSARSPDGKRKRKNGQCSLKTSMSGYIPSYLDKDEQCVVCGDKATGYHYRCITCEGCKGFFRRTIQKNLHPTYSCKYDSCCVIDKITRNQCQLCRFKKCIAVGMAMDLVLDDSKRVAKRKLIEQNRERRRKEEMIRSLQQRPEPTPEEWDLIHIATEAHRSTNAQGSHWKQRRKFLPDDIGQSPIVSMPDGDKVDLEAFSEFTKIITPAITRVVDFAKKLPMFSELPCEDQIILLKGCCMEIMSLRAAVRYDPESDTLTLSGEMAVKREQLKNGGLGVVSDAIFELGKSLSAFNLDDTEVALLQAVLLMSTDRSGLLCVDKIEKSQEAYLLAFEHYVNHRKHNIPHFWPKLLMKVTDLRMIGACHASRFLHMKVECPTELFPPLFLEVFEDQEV
T4 sequence (P19793 1-462 partner): T1 sequence (P19793 1-462 partner)
Put plainly: HEK293T THR alpha/RXR luciferase reporter assay (Assay 2). The format is cell-based. The following applies: Assay 2; for Emax: HEK-293T, Table 5, THRα, read-out: Activity category Assay 2 THRα (Emax); for pEC50: Table 4, THR-alpha, read-out: Activity category Assay 2 (EC50, THR-alpha agonist activity). A digest of the protocol:
as §1

pEC50: −log10 of the molar value.

As for `CC(C)c1n[nH]c2nnc(Oc3c(Cl)cc(-n4nc(N)c(=O)[nH]c4=O)cc3Cl)cc12` [Compound 75, 6-amino-2-(3,5-dichloro-4-((3-isopropyl-1H-pyrazolo[3,4-c]pyridazin-5-yl)oxy)phenyl)-1,2,4-triazine-3,5 (2H,4H)-dione], the Emax in assay [1], in assay [2], in assay [3] and in assay [4] was > 75% in each case. For the same compound, the negative-log EC50 (pEC50) in assay [1] was > 7.30; in assay [2] it was > 7.30; in assay [3], 6.60 to 7.30; in assay [4], 6.00 to 6.60.

For `CC1(C)CC(c2cc(Oc3c(Cl)cc(-n4nc(N)c(=O)[nH]c4=O)cc3Cl)n[nH]c2=O)CCO1` (stereo not drawn) [Compound 76, 6-Amino-2-(3,5-dichloro-4-((5-(2,2-dimethyltetrahydro-2H-pyran-4-yl)-6-oxo-1,6-dihydropyridazin-3-yl)oxy)phenyl)-1,2,4-triazine-3,5(2H, 4H)-dione], the maximal response (Emax) is 50 to 75% in assay [1], < 50% in assay [2], < 50% in assay [3] and < 50% in assay [4]. In addition, the pEC50 was 6.00 to 6.60 in assay [1], 4.60 to 6.00 in assay [2], < 4.60 in assay [3] and < 5.00 in assay [4].

Take `Nc1nn(-c2cc(Cl)c(Oc3cc(C(O)C4CCCC4)c(=O)[nH]n3)c(Cl)c2)c(=O)[nH]c1=O` (stereo not drawn) [Compound 77, 6-amino-2-[3,5-dichloro-4-([5-[cyclopentyl(hydroxy)methyl]-6-oxo-1H-pyridazin-3-yl]oxy)phenyl]-4H-1,2,4-triazine-3,5-dione]: the maximum response (Emax) was > 75% in assay [1], < 50% in assay [2], 50 to 75% in assay [3] and > 75% in assay [4]. Moreover, the pEC50 is 6.60 to 7.30 in assay [1], 6.60 to 7.30 in assay [2], 6.00 to 6.60 in assay [3] and 6.00 to 6.60 in assay [4].

Turning to `CC(C)c1cc(Oc2c(Cl)cc(-n3nc(N)c(=O)[nH]c3=O)c3c2CC3)n[nH]c1=O` [Compound 79, 6-Amino-2-[4-chloro-5-[(5-isopropyl-6-oxo-1H-pyridazin-3-yl)oxy]-bicyclo[4.2.0]octa-1(6),2,4-trien-2-yl]-4H-1,2,4-triazine-3,5-dione], the Emax in assay [1] is > 75%; in assay [2] it was 50 to 75%; in assay [3] it was < 50%; in assay [4], 50 to 75%. Also, the pEC50 in assay [1] is < 5.00; in assay [2] it was 4.60 to 6.00; in assay [3] it was 4.60 to 6.00; in assay [4], 5.00 to 6.00.

As to `CC(C)c1cc(Oc2c(Cl)cc(-n3nc(N)c(=O)[nH]c3=O)cc2Br)n[nH]c1=O` [Compound 80, 6-Amino-2-(3-bromo-5-chloro-4-((5-isopropyl-6-oxo-1,6-dihydropyridazin-3-yl)oxy)phenyl)-1,2,4-triazine-3,5(2H,4H)-dione], the Emax was > 75% in assay [1], 50 to 75% in assay [2], 50 to 75% in assay [3] and > 75% in assay [4]. For the same compound, the pEC50 is > 7.30 in assay [1], > 7.30 in assay [2], 6.60 to 7.30 in assay [3] and 6.60 to 7.30 in assay [4].

With `CC(C)c1cc(Oc2c(Br)cc(-n3nc(N)c(=O)[nH]c3=O)cc2Br)n[nH]c1=O` [Compound 81, 6-Amino-2-(3,5-dibromo-4-((5-isopropyl-6-oxo-1,6-dihydropyridazin-3-yl)oxy)phenyl)-1,2,4-triazine-3,5(2H,4H)-dione], the Emax in assay [1] is > 75%; in assay [2], 50 to 75%; in assay [3], 50 to 75%; in assay [4], > 75%. The pEC50 in assay [1], in assay [2], in assay [3] and in assay [4] was > 7.30 throughout.

Consider `CC1(C)C(=O)Nc2ccc(Oc3c(Cl)cc(-n4nc(N)c(=O)[nH]c4=O)cc3Cl)cc21` [Compound 82, 6-amino-2-[3,5-dichloro-4-[(3,3-dimethyl-2-oxo-1H-indol-5-yl)oxy]phenyl]-4H-1,2,4-triazine-3,5-dione], for which the Emax in assay [1], in assay [2], in assay [3] and in assay [4] was > 75% each time. The pEC50 in assay [1], in assay [2], in assay [3] and in assay [4] was > 7.30 throughout.

With `CC(C)C1(C)C(=O)Nc2ccc(Oc3c(Cl)cc(-n4nc(N)c(=O)[nH]c4=O)cc3Cl)cc21` (stereo not drawn) [Compound 84, 6-amino-2-[3,5-dichloro-4-[(3-isopropyl-3-methyl-2-oxo-1H-indol-5-yl)oxy]phenyl]-4H-1,2,4-triazine-3,5-dione], the Emax in assay [1] is > 75%; in assay [2], < 50%; in assay [3] it was 50 to 75%; in assay [4] it was > 75%. Also, the pEC50 was 6.60 to 7.30 in assay [1], > 7.30 in assay [2], > 7.30 in assay [3] and 6.60 to 7.30 in assay [4].

Turning to `Nc1nn(-c2cc(Cl)c(Oc3ccc4c(c3)C3(CCCCC3)C(=O)N4)c(Cl)c2)c(=O)[nH]c1=O` [Compound 85], the Emax is > 75% in assay [1], < 50% in assay [2], < 50% in assay [3] and 50 to 75% in assay [4]. Besides, the pEC50 in assay [2], in assay [3] and in assay [4] was > 7.30 throughout.

With `Nc1nn(-c2cc(Cl)c(Oc3cc([C@H]4C[C@H](O)C4)c(=O)[nH]n3)c(Cl)c2)c(=O)[nH]c1=O` [Compound 88-A, 6-Amino-2-[3,5-dichloro-4-([6-oxo-5-[(1r,3r)-3-hydroxycyclobutyl]-1H-pyridazin-3-yl]oxy)phenyl]-4H-1,2,4-triazine-3,5-dione], the maximal effect (Emax) is < 50% in assay [1], < 50% in assay [2], < 50% in assay [3] and > 75% in assay [4]. In addition, the pEC50 was < 5.00 in assay [1], 4.60 to 6.00 in assay [2], < 4.60 in assay [3] and < 5.00 in assay [4].

On to `O=c1cnn(-c2cc(Cl)c(Oc3cc(-c4ccc5c(c4)CCCC5)c(=O)[nH]n3)c(Cl)c2)c(=O)[nH]1` [Compound 91, 2-(3,5-dichloro-4-((6-oxo-5-(5,6,7,8-tetrahydronaphthalen-2-yl)-1,6-dihydropyridazin-3-yl)oxy)phenyl)-1,2,4-triazine-3,5(2H,4H)-dione], for which the Emax in assay [1] was 50 to 75%; in assay [2] it was < 50%; in assay [3] it was 50 to 75%; in assay [4], < 50%. Moreover, the pEC50 was 6.60 to 7.30 in assay [1], > 7.30 in assay [2], 4.60 to 6.00 in assay [3] and < 5.00 in assay [4].
